For one experiment, the target named is T1, human FGFR2 (Homo sapiens, UniProt P21802).
T1 construct: purchased Invitrogen PV3368
The experiment can be described thus: 33P isotope-labeled kinase activity test (Reaction Biology Corp), FGFR2. Format: biochemical. The settings on record: 33P-ATP 5 μM, kinase 0.45 nM, 120 min room temperature. The protocol: (§1) The IC50 value was determined using ^33P isotope-labeled kinase activity test (Reaction Biology Corp) to evaluate the inhibitory ability of the compounds to be tested on human FGFR1, FGFR2 and VEGFR2.
(§2) Buffer conditions: 20 mM Hepes (pH 7.5), 10 mM MgCl2, 1 mM EGTA, 0.02% Brij35, 0.02 mg/mL BSA, 0.1 mM Na3VO4, 2 mM DTT, 1% DMSO.
(§3) Test steps: At room temperature, the compounds to be tested were dissolved in DMSO to prepare a 10 mM solution for use. The substrate was dissolved in the newly-prepared buffer, and the kinase to be tested was added thereto and mixed well. The DMSO solution in which the compounds to be tested were dissolved was added to the above-mentioned homogeneous reaction solution using acoustic technology (Echo 550). […] After incubating for 15 minutes, to the reaction solution was added ^33P-ATP (activity: 0.01 μCi/μL, with corresponding concentration listed in Table 10) to start the reaction. […] The kinase activity data was expressed by comparing the kinase activity of the groups containing the compounds to be tested with that of the blank group (containing only DMSO). The IC50 value was obtained by curve fitting using Prism4 software (GraphPad), and the experimental results were shown in Table 11.

Experiment [1] deals with human gastric cancer SNU-16 cells expressing FGFR2. The experiment can be described thus: Cell activity (proliferation) test of gastric cancer cell line SNU-16, CellTiter-Glo. Format: cell-based. The settings on record: inhibition of proliferation. The protocol:
To test the inhibitory effect of the compounds on the proliferation of human gastric cancer SNU-16 cells expressing FGFR2.
The compounds used in the test were subjected to 3-fold concentration dilution, the concentration starting from 10 μM and subjected to […], resulting in 9 concentrations: 10 μM, 2.50 μM, 0.62 μM, 0.156 μM, 39.1 nM, 9.8 nM, 2.4 nM, 0.61 nM, and 0.15 nM.
(1) Promega CellTiter-Glo luminescent cell viability assay kit (Promega-G7573).
(2) 2104 EnVision multi-tag reader, PerkinElmer.
The inhibition rate of different doses of the compounds would be calculated in the Excel file, and the IC50 data was obtained by parametric curve fitting (GraphPad Software).
(In ATP-based viability assays light output follows the ATP content of the culture.)

Another experiment addresses T2, human VEGFR2 (Homo sapiens, UniProt P35968).
T2 construct: purchased Invitrogen PR5992C
The experiment can be described thus: 33P isotope-labeled kinase activity test (Reaction Biology Corp), VEGFR2. In kind it is biochemical. The settings on record: 33P-ATP 20 μM, kinase 1 nM, 120 min room temperature. The protocol: as §1, §2, §3

Counter-ions that a name gives are not always drawn.

T1 sequence (P21802 22-821): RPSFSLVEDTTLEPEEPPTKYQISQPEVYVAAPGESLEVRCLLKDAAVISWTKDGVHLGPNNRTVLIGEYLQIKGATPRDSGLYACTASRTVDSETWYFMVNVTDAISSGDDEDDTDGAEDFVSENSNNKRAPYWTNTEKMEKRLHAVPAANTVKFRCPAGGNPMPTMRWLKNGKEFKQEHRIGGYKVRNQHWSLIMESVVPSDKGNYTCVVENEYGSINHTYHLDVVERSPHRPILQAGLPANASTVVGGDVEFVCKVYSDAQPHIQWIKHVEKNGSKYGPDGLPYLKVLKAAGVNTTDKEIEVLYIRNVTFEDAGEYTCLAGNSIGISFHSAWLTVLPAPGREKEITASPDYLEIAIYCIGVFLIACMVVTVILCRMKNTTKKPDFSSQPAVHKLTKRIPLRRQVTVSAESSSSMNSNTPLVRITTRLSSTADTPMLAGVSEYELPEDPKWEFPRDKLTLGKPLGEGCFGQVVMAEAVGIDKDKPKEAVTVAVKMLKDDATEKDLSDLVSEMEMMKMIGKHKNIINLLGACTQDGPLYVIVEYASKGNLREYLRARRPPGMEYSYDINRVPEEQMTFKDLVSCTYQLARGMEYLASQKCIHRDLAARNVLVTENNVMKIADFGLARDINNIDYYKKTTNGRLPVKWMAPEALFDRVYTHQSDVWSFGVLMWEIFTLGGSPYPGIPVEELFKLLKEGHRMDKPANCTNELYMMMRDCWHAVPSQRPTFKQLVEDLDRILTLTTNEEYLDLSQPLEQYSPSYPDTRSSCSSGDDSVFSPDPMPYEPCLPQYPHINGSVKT
T2 sequence (P35968 20-1356): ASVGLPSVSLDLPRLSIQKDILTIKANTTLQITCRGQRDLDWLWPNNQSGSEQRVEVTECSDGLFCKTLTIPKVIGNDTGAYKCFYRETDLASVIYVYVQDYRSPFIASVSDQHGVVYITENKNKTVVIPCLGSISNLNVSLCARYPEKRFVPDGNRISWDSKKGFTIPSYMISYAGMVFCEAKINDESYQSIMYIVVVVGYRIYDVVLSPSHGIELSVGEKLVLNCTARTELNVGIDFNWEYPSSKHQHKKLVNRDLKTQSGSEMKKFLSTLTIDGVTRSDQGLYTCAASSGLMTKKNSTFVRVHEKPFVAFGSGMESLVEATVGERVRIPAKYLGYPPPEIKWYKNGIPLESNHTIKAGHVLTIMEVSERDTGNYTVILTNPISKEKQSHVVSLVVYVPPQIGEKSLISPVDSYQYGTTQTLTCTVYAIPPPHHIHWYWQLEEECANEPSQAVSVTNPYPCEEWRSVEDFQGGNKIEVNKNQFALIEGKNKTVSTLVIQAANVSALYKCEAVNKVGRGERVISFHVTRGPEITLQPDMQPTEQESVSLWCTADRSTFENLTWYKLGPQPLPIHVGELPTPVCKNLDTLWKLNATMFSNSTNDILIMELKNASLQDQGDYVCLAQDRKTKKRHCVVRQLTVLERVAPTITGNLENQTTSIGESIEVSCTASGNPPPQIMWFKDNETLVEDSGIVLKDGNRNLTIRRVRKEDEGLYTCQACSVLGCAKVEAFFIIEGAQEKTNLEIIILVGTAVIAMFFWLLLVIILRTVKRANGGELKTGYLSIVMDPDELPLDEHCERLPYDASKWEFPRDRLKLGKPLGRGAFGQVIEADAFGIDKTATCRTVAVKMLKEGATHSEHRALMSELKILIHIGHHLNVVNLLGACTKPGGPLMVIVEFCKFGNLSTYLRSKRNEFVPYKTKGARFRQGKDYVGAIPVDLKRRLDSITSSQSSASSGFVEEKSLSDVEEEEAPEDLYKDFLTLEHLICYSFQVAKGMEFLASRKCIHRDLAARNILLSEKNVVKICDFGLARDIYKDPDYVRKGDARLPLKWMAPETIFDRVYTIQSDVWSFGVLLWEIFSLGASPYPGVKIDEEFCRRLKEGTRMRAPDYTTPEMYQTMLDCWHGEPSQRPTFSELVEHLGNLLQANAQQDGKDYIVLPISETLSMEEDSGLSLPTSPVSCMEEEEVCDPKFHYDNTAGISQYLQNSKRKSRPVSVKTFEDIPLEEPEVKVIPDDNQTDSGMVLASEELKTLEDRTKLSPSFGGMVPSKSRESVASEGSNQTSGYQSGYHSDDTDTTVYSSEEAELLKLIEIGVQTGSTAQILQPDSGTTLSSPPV

For `CS(=O)(=O)Nc1cc(-c2ncc(F)cc2F)cc(-c2cnn3cc(-c4cnn(C5CCNCC5)c4)ccc23)c1` [Hydrochloride salt of compound 37], half-maximal inhibition against human FGFR2 (IC50) was put at 0.18 nM. On to `Cn1cc(-c2ccc3c(-c4cc(NCC(C)(C)O)cc(-c5ncc(F)cc5F)c4)cnn3c2)cn1` [Compound 49], for which, at human FGFR2, 2.29 nM corresponded to half-maximal inhibition (IC50). For the compound `CCS(=O)(=O)Nc1cc(-c2ncc(F)cc2F)cc(-c2cnn3cc(-c4cnn(C)c4)ccc23)c1` [Trifluoroacetate salt of compound 33], the figures for the IC50 (on human FGFR2; in experiment [1]) were 1.21 nM and 6.2 nM, respectively.

On to `CS(=O)(=O)Nc1cc(-c2ncc(F)cc2F)cc(-c2cnn3cc(-c4cnn(CCN5CCOCC5)c4)ccc23)c1` [Compound 38], for which the IC50 (in general, the concentration at which inhibition is half-maximal) at human FGFR2 was found to be 0.72 nM. For the compound `CS(=O)(=O)Nc1cc(-c2ncc(F)cc2F)cc(-c2cnn3cc(C4CC4)ccc23)c1` [Compound 35], the IC50 on human FGFR2 came out at 49.2 nM.

As for `Cn1cc(-c2ccc3c(-c4cc(NCC(C)(C)O)cc(-c5ccc(F)cc5F)c4)cnn3c2)cn1` [Compound 54], half-maximal inhibition against human FGFR2 (IC50) required 10.6 nM.

The compound `CCS(=O)(=O)Nc1cc(-c2ccc(F)cc2F)cc(-c2cnn3cc(-c4cnn(C)c4)ccc23)n1` [Compound 43] yielded an IC50 against human FGFR2 of 0.47 nM. Take `CS(=O)(=O)Nc1cc(-c2ccc(F)cc2F)cc(-c2cnn3cc(-c4ncn(C5CCOCC5)n4)ccc23)c1` [Compound 15]: inhibition at human FGFR2 was half-maximal at 287 nM (IC50).

Take `CS(=O)(=O)Nc1cc(-c2ncc(F)cc2F)cc(-c2cnn3cc(-c4cnn(CC5COCCO5)c4)ccc23)c1` (stereo not drawn) [Compound 39]: the IC50 against human FGFR2 is 0.95 nM; against human VEGFR2, 0.66 nM. For the compound `CS(=O)(=O)Nc1cc(-c2ccc(F)cc2F)cc(-c2cnn3cc(-c4cnn(CC(O)CO)c4)ccc23)c1` (stereo not drawn) [Compound 22], the half-inhibitory concentration (IC50) at human FGFR2 was 4.38 nM; on human VEGFR2, 1.88 nM; in experiment [1], 28.5 nM. As to `CS(=O)(=O)Nc1cc(-c2ccc(F)cc2F)cc(-c2cnn3cc(-c4cnn(C5CCNCC5)c4)ccc23)c1` [Hydrochloride salt of compound 21], the results for the IC50 (on human FGFR2; in experiment [1]) were 0.57 nM and 9.6 nM, respectively.

For `Cn1nccc1-c1ccc2c(-c3cc(NS(C)(=O)=O)cc(-c4ccc(F)cc4F)c3)cnn2c1` [Compound 28], the concentration for half-maximal inhibition (IC50) against human FGFR2 was 359 nM. With `Cn1cc(-c2ccc3c(-c4cc(NC(=O)N5CCC(O)C5)cc(-c5ccc(F)cc5F)c4)cnn3c2)cn1` (stereo not drawn) [Compound 25], the values for the half-inhibitory concentration (IC50) on human FGFR2 and against human VEGFR2 were 40.2 nM and 22.4 nM, respectively. Compound `Cn1cc(-c2ccc3c(-c4cc(NS(C)(=O)=O)cc(-c5ccc(F)cc5F)c4)cnn3c2)nn1` [Compound 26] gave an IC50 in experiment [1] of 7.8 nM. `CCS(=O)(=O)Nc1cc(-c2cnn3cc(-c4cnn(C)c4)ccc23)cc(-c2ccc(F)cc2F)n1` [Compound 13] displayed an IC50 against human FGFR2 of 2.98 nM. That is a single-digit nanomolar value.

Take `O=S(=O)(Nc1cc(-c2ccc(F)cc2F)cc(-c2cnn3cc(-c4cnn(C5CCNCC5)c4)ccc23)c1)C1CC1` [Hydrochloride salt of compound 51]: the IC50 at human FGFR2 came to 1.27 nM.

Turning to `Cn1cc(-c2ccc3c(-c4cc(NS(C)(=O)=O)nc(-c5ccc(F)cc5F)c4)cnn3c2)cn1` [Compound 12], at human FGFR2, half-maximal inhibition (IC50) required 3.74 nM. Against the preceding compound, the IC50 is about 2.9-fold higher. Consider `CN1CCC(n2cc(-c3ccc4c(-c5cc(NS(C)(=O)=O)cc(-c6ccc(F)cc6F)c5)cnn4c3)cn2)CC1` [Compound 30], for which, on human FGFR2, 0.3 nM corresponded to half-maximal inhibition (IC50).

In the case of `Cn1cc(-c2ccc3c(-c4cc(NCC(O)CO)cc(-c5ncc(F)cc5F)c4)cnn3c2)cn1` (stereo not drawn) [Compound 50], the results for the IC50 against human FGFR2 and against human VEGFR2 were 1.05 nM and 3.82 nM, respectively. Turning to `CS(=O)(=O)Nc1cc(-c2ncc(F)cc2F)cc(-c2cnn3cc(-c4cnn(CC5COCCN5Cc5ccccc5)c4)ccc23)c1` (stereo not drawn) [Compound 45], the half-inhibitory concentration (IC50) was 29.6 nM at human FGFR2 and 11.2 nM on human VEGFR2. As to `Cn1cc(-c2ccc3c(-c4cc(NCC(O)CO)cc(-c5ccc(F)cc5F)c4)cnn3c2)cn1` (stereo not drawn) [Compound 53], the figures for the IC50 against human FGFR2 and against human VEGFR2 were 5.59 nM and 3.63 nM, respectively. Taken in the same sequence, the figures for `CS(=O)(=O)CCCn1cc(-c2ccc3c(-c4cc(NS(C)(=O)=O)cc(-c5ncc(F)cc5F)c4)cnn3c2)cn1` [Compound 40] were 0.77 nM and 1.99 nM. Take `Cn1cc(-c2ccc3c(-c4cc(NS(C)(=O)=O)cc(-c5ccc(F)cc5F)c4)cnn3c2)nn1` [Trifluoroacetate salt of compound 26]: the IC50 at human FGFR2 was found to be 1.98 nM; on human VEGFR2, 2.74 nM. Consider `Cc1ncn(-c2ccc3c(-c4cc(NS(C)(=O)=O)cc(-c5ccc(F)cc5F)c4)cnn3c2)n1` [Compound 19], for which half-maximal inhibition against human FGFR2 (IC50) required 88.6 nM. `CS(=O)(=O)Nc1cc(-c2ncc(F)cc2F)cc(-c2cnn3cc(-c4cnn(CC(O)CO)c4)ccc23)c1` (stereo not drawn) [Compound 34]: the values for the IC50 on human FGFR2 and on human VEGFR2 were 0.42 nM and 0.29 nM, respectively. Turning to `CONC(=O)Nc1cc(-c2ccc(F)cc2F)cc(-c2cnn3cc(-c4cnn(C)c4)ccc23)c1` [Compound 24], the IC50 against human FGFR2 is 10.1 nM. Compound `Cn1cc(-c2ccc3c(-c4cc(-c5ccc(F)cc5F)cc(NS(=O)(=O)C5CC5)n4)cnn3c2)cn1` [Compound 42] yielded an IC50 against human FGFR2 of 1.06 nM. Compound `Cn1cc(-c2ccc3c(c2)ncn3-c2cc(NS(=O)(=O)C3CC3)cc(-c3ccc(F)cc3F)c2)cn1` [Comparative example 1, reference compound] showed an IC50 in experiment [1] of 62 nM. At human FGFR2, `CCS(=O)(=O)Nc1cc(-c2ccc(F)cc2F)cc(-c2cnn3cc(-n4cnc(C)n4)ccc23)c1` [Compound 17] showed a half-maximal inhibitory concentration (IC50) of 142 nM. Take `Cn1cc(-c2ccc3c(-c4cc(NCC5COC(C)(C)O5)cc(-c5ncc(F)cc5F)c4)cnn3c2)cn1` (stereo not drawn) [Compound 48]: the IC50 at human FGFR2 came to 0.95 nM; against human VEGFR2, 8.39 nM.

`Cn1cc(-c2ccc3c(-c4cc(NS(=O)(=O)C5CC5)cc(-c5ccc(F)nc5F)c4)cnn3c2)cn1` [Compound 8] gave an IC50 against human FGFR2 of 65.3 nM. That is a double-digit nanomolar value. Take `Cn1cc(-c2ccc3c(-c4cc(NC(=O)NC5CC5)cc(-c5ccc(F)cc5F)c4)cnn3c2)cn1` [Compound 23]: at human FGFR2, the IC50 came out at 1.88 nM. This IC50 lies about 35-fold lower than the previous one. Turning to `Cn1cc(-c2ccc3c(-c4cc(NCC5COC(C)(C)O5)cc(-c5ccc(F)cc5F)c4)cnn3c2)cn1` (stereo not drawn) [Compound 52], the IC50 was 6.59 nM at human FGFR2 and 21.4 nM on human VEGFR2. `CS(=O)(=O)Nc1cc(-c2ncc(F)cc2F)cc(-c2cnn3cc(-c4cnn(CC5COCCN5)c4)ccc23)c1` (stereo not drawn) [Compound 44]: the figures for the IC50 against human FGFR2 and against human VEGFR2 were 0.72 nM and 1.4 nM, respectively. `Cn1cnc(-c2ccc3c(-c4cc(NS(C)(=O)=O)cc(-c5ccc(F)cc5F)c4)cnn3c2)c1` [Trifluoroacetate salt of compound 27]: the IC50 against human FGFR2 came out at 2.55 nM; in experiment [1] it was 11.5 nM. At human FGFR2, `Cn1cc(-c2ccc3c(-c4cc(NS(=O)(=O)C5CC5)cc(-c5ccc(F)nc5)c4)cnn3c2)cn1` [Trifluoroacetate salt of compound 9] showed an IC50 of 73.3 nM.

Consider `CS(=O)(=O)Nc1cc(-c2ccc(F)cc2F)cc(-c2cnn3cc(-c4ncn(CCO)n4)ccc23)c1` [Compound 18], for which, at human FGFR2, inhibition was half-maximal at 256 nM (IC50). This IC50 lies about 3.5-fold higher than the previous one. As for `CN(C)CCn1cc(-c2ccc3c(-c4cc(NS(C)(=O)=O)cc(-c5ccc(F)cc5F)c4)cnn3c2)cn1` [Compound 20], the IC50 stood at 0.23 nM on human FGFR2 and 7.5 nM in experiment [1]. On human FGFR2, `CS(=O)(=O)Nc1cc(-c2cnn3cc(-c4cnn(CCN5CCOCC5)c4)ccc23)cc(-c2ccc(F)cc2F)n1` [Trifluoroacetate salt of compound 29] gave an IC50 of 3.98 nM. As to `Cc1ncn(-c2ccc3c(-c4cc(NS(=O)(=O)C5CC5)cc(-c5ccc(F)cc5F)c4)cnn3c2)n1` [Compound 16], the IC50 against human FGFR2 was 312 nM. Compound `Cn1cc(-c2ccc3c(-c4cc(NS(C)(=O)=O)cc(-c5ncc(F)cc5F)c4)cnn3c2)cn1` [Trifluoroacetate salt of compound 32] registered an IC50 on human FGFR2 of 1.09 nM.

As to `CC(C)(O)Cn1cc(-c2ccc3c(-c4cc(NS(C)(=O)=O)cc(-c5ncc(F)cc5F)c4)cnn3c2)cn1` [Compound 31], on human FGFR2, the midpoint of inhibition, the IC50, lay at 1.79 nM.

At human FGFR2, `CN1CCC(n2cc(-c3ccc4c(-c5cc(NS(C)(=O)=O)cc(-c6ncc(F)cc6F)c5)cnn4c3)cn2)CC1` [Compound 36] had an IC50 of 0.23 nM. Consider `O=S(=O)(Nc1cc(-c2ncc(F)cc2F)cc(-c2cnn3cc(-c4cnn(C5CCNCC5)c4)ccc23)c1)C1CC1` [Hydrochloride salt of compound 47], for which the IC50 at human FGFR2 was 0.45 nM. This IC50 is about 2-fold higher than that of the compound before. At human FGFR2, `Cn1cc(-c2ccc3c(-c4cc(NS(=O)(=O)C5CC5)cc(-c5cccnc5F)c4)cnn3c2)cn1` [Trifluoroacetate salt of compound 10] yielded an IC50 of 36.5 nM. Compound `Cn1cc(-c2ccc3c(-c4cc(-c5ccc(F)cc5F)cc(NS(C)(=O)=O)n4)cnn3c2)cn1` [Compound 41] returned an IC50 at human FGFR2 of 1.81 nM.
